Data from patent publication US20160311795A1, “PYRIMIDINE DIAMINE DERIVATIVES AS INHIBITORS OF CYTOSOLIC HSP90” (CALASIA PHARMACEUTICALS, INC., priority 2012, published 2016).
Like-named read-outs stand apart in the source and are kept apart here.

Columns and labels:
[1] = target: T1, human full length Hsp90 (Homo sapiens, UniProt P07900); test: Determination of the Kd value of FITC-labeled geldanamycin for Hsp90 (fluorescence polarization); assay type: binding; settings: with or without 50 nM Hsp90
T1 construct: amino acid residues 1 to 732 of human Hsp90 (GenBank: BC121062.2); made in house; host or cells: E. coli BL21DE3 (pET15b)
Experimental: Eighty five micro liters (μl) of a binding assay buffer (20 mM HEPES, pH 7.5, 50 mM KCl, 5 mM MgCl2, 20 mM sodium molybdate, 0.01% NP-40, 2 mM DTT, and 0.1 mg/mL BSA) were added to a 96 well black plate placed on ice. DMSO (3 μl) was added to the wells, followed by the addition of either 10 μl human full length HSP90 (50 nM final concentration) diluted in the binding assay buffer or 10 μl of the buffer alone. The plates were incubated at 4° C. on a plate shaker for 24 hours. Two μl of 50× GA-FITC titrate within a final range of 160 nM to 0.3125 nM in DMSO were added to all wells, followed by incubation at ambient temperature for 1 h with agitation. Fluorescence polarization readings were taken at excitation and emission wavelengths of 480 and 500 nm respectively. Measurements were performed in duplicate. Specific binding was calculated by subtracting polarization values in the presence of
Hsp90 from those in the absence of Hsp90. GA-FITC Kd values were calculated using Prism software (GraphPad Software, Inc., San Diego, Calif.).
A 10 point concentration response curve for binding of GM-FITC to Hsp90 was obtained. The concentration of GM-FITC used ranged from 160 nM to 0.3125 nM, which produced a saturable concentration response curve. […] The value of binding maximum (Bmax) was determined to be 188 nM.

[2] = target: T1, human full length Hsp90; test: Fluorescence polarization Hsp90 competitive binding assay (GM-FITC displacement)
Experimental: Hsp90 binding assays was performed generally according to the procedure described in J. Biomol. […] Hsp90 inhibitors were solubilized in DMSO at a stock concentration of 50 mM. […] Eighty five μl of binding assay buffer (20 mM HEPES, pH-7.5, 50 mM KCl, 5 mM MgCl2, 20 mM sodium molybdate, 0.01% NP-40, 2 mM DTT, and 0.1 mg/ml BSA) was added to the wells of a 96 well black plate placed on ice. […] Next, 10 μl either binding assay buffer alone (control) or human full length Hsp90 protein diluted in the binding assay buffer was added to achieve a final concentration of 50 nM. The plates were incubated at 4° C. on a plate shaker for 24 h. Two μl of 50× GM-FITC (9 nM final) in DMSO was added to all wells and the plate was incubated at ambient temperature for 1 h with shaking. Fluorescence polarization readings were taken in duplicate at excitation and emission wavelengths of 480 nm and 500 nm respectively. Specific binding was calculated by subtracting polarization values in the presence of Hsp90 from those in the absence of Hsp90. To calculate percent inhibition the specific binding values obtained for GA-FITC in the presence of compound were compared to values for GA-FITC in the absence of compound (DMSO only).

[3] = Rat CNS exposure (plasma and CNS tissue concentration, LC-MS/MS); assay type: in vivo; settings: 10 mg/kg
Experimental: Test subjects (Sprague-Dawley rats) were housed in sterile vivarium with controlled temperature, humidity and 12-hour light-dark cycle (7:00 lights-on and 19:00 lights-off). Following procurement, rats were acclimated to the vivarium facility for 7 days prior to study day-1 with ad libitum access to both diet and water. Bedding was changed twice weekly. […] On study day-1 rats were administered vehicle or Hsp90 inhibitor formulation. Following administrations of test article formulation, blood and CNS tissue was collected at 6.5 h post-dosed by a necropsy procedure. In detail, CNS tissue was isolated from the Vehicle and dose groups, divided into 2 mid-sagittal sections, placed in tarred 1 mL micro-centrifuge tubes, weighed and immediately frozen on dry ice. Blood was isolated by a cardiac puncture procedure from the Vehicle and Hsp90 inhibitor dose groups. From these samples, plasma was isolated in plasma separator tubes containing ethylenediaminetetraacetic acid as the anticoagulant. HSP90 inhibitor concentrations in plasma and CNS tissue were determined using LC-MS/MS based methods following a 60% acetonitrile extraction.

[4] = Table 1, 50 nM Hsp90, 9 nM GM-FITC, read-out: Biochemical Potency IC50
[5] = Table II, binding affinities ranked by potency
[6] = Table II, binding affinities ranked by potency, read-out: IC50

Row | binding maximum (Bmax) [1] [nM] | Kd ([1]; 160 nM to 0.3125 nM probe) [nM] | IC50 [2, 4] [nM] | Ki [2, 5] [nM] | IC50 [2, 6] [nM] | SMILES | partitioning CNS versus plasma [3]
1 | – | – | 1140 | 285 | 1140 | CCN(Cc1ncc(C)c(OC)c1C)c1cc(Cl)nc(N)n1 [SBI-0640612, 6-Chloro-N4-ethyl-N4-((4-methoxy-3,5-dimethylpyridin-2-yl)methyl)pyrimidine-2,4-diamine] | –
2 | – | – | 13900 | 3480 | 13900 | COc1c(C)cnc(CN(C(=O)C(C)C)c2cc(Cl)nc(N)n2)c1C [SBI-0640644] | –
3 | – | – | 30000 | 7500 | 30000 | CCCC(=O)N(Cc1ncc(C)c(OC)c1C)c1cc(Cl)nc(N)n1 [SBI-0640645] | –

More lines, now with the values behind:

Row | SMILES | binding maximum (Bmax) [1] [nM] | Kd ([1]; 160 nM to 0.3125 nM probe) [nM] | IC50 [2, 4] [nM] | Ki [2, 5] [nM] | IC50 [2, 6] [nM] | partitioning CNS versus plasma [3]
4 | CO[C@H]1/C=C\C=C(/C)C(=O)NC2=CC(=O)C(NCCCCCCNC(=S)Nc3ccc(-c4c5ccc(=O)cc-5oc5cc(O)ccc45)c(C(=O)O)c3)=C(C[C@@H](C)C[C@H](OC)[C@H](O)[C@@H](C)/C=C(\C)[C@@H]1OC(N)=O)C2=O [GA-FITC] | 188 | 3.1 | – | – | – | –
5 | COc1c(C)cnc(CN(CCc2cccc(Br)c2)c2cc(Cl)nc(N)n2)c1C [SBI-0640613, N4-(3-Bromophenethyl)-6-chloro-N4-((4-methoxy-3,5-dimethylpyridin-2-yl)methyl)pyrimidine-2,4-diamine] | – | – | 97 | 24 | 97 | –
6 | Cc1cn(-c2cc(F)c(C(N)=O)c(N[C@H]3CCOC3)c2)c2c1C(=O)CC(C)(C)C2 [SNX-0723, reference compound] | – | – | – | – | – | selectively partitions into the CNS compartment compared to plasma
